Measured values taken from patent US12474327B2, “Metabolic profiling for the diagnosis of a subset of idiopathic autism spectrum disorder patients, ADS Phenotype 1” (STALICLA SA, priority 2018, dated 2025).

Experiments:
[1] = system: ASD Phenotype 1 lymphoblastoid cell lines (LCLs); test: Energy production capacity (NADH, tetrazolium colorimetric assay, Biolog Phenotype Mammalian MicroArrays); format: cell-based, human
Procedure: (§1) The data reported in the present patent were generated from lymphoblastoid cell lines (LCLs) generated from lymphocytes from peripheral blood. Tubes containing anticoagulant citrate dextrose (ACD) were used to collect blood samples via venipuncture, in order to ensure that the blood cells remained metabolically active. The tubes were kept at room temperature and processed within 24 hours.
(§2) Cell lines were obtained by immortalization of lymphocytes from blood samples using Epstein-Barr virus. The lymphoblastoid cell lines were harvested in Sigma RPMI-1640 with 75 mL fetal bovine serum from Atlanta Biological (Lawrenceville, GA, USA) and 5 mL L-Glutamine and 5 mL antibiotic/antimycotic from Sigma-Aldrich (St. Louis, MO, USA).
(§3) Energy production of cells was measured using commercially available Phenotype Mammalian MicroArrays (PM-Ms, Biolog, Hayward, CA, USA).
(§4) The compound in each well was designed to be used by the cells, either as the sole energy source or as the metabolic effector influencing the utilization of an energy source (D-glucose) added in the cell suspension. The production of NADH per well was monitored using a colorimetric redox dye chemistry (Bochner et al. Assay of the multiple energy-producing pathways of mammalian cells. PLoS One 2011, 6(3):e18147). Before plating, cell viability and number were assessed utilizing a BioRad cell counter and a trypan blue dye.
(§5) The concentration of live cells required for plating was 4×10^5 cells/mL, corresponding to 20,000 cells per well in a volume of 50 μL. Only cell lines with viability of 55% or above were utilized for the experiments and, in order to minimize artifacts and biases due to prolonged cell culturing of transformed cells, LCLs were not been utilized if they had reached 15 passages. Cells were incubated for 48 h at 37° C. in 5% CO2, using the modified Biolog IF-M1 medium.
(§6) The Biolog IF-M1 medium was modified for plates PM-M1 by adding the following to 100 mL of Biolog IF-M1: 1.1 mL of 100× penicillin/streptomycin solution, 0.16 mL of 200 mM glutamine (final concentration 0.3 mM), and 5.3 mL of Fetal Bovine Serum (FBS, final concentration 5%). For plates PM-M6, 5.5 mM α-D-glucose was added instead of FBS.
(§7) After this first incubation, Biolog Redox Dye Mix MB was added (10 μL/well) and the plates were incubated under the same conditions for an additional 24 hours. As the cells metabolized the energy source, tetrazolium dye in the media was reduced, producing a purple color according to the amount of NADH generated.
(§8) For the last 24 hours of the experiment, plates were incubated in the Omnilog system, which collects optical density readings every 15 minutes, generating 96 data-points for each well. The system also elaborated the kinetic curve for the metabolic reaction in each well and extrapolated parameters such as slope, highest point, endpoint, area under the curve (AUC), and lag. The system performed parametric analysis by comparing kinetic curves of cases versus controls, both as individual sample or as cohorts.
(§9) At the end of the 24-hour incubation, plates were analyzed utilizing a microplate reader with readings at 590 and 750 nm. The first value (A590) indicated the highest absorbance peak of the redox dye and the second value (A750) gave a measure of the background noise. The relative absorbance (A590-750) was calculated per well.
(§10) Metabolic profiles of the same cell lines were then assessed after stimulation of the Nrf2 signaling pathway aiming to reproduce in control and Non-Ph1 cells the activation of the hub that occurs constitutively in ASD Ph1. In order to achieve the stimulation of the Nrf2 pathway, the cells were exposed to sulforaphane.

[2] = system: ASD non-Phenotype 1 lymphoblastoid cell lines (LCLs); test: as above; format: cell-based, human; details: for energy production capacity: ASD non-Phenotype 1 LCLs, in presence of D-Glucose
Procedure: as §1, §2, §3, §4, §5, §6, §7, §8, §9, §10

[3] = system: control lymphoblastoid cell lines (LCLs); test: as above; format: cell-based, human; details: for energy production capacity: in presence of D-Glucose
Procedure: as §1, §2, §3, §4, §5, §6, §7, §8, §9, §10

[4] = system: core symptoms of ASD; details: ASD patients treated in Singh et al.; cited from earlier work
[5] = system: ASD Phenotype 1 patients; details: short oral treatment, described in EP 17200185.1; cited from earlier work
[6] = Singh K et al., PNAS 2014; cited from earlier work

C[S@@+]([O-])CCCCN=C=S [sulforaphane, 1-isothiocyanato-4R-(methylsulfinyl)butane]
effect on the dibutyryl cAMP-induced increase of energy production capacity ([1]; ASD Ph1 cells, D-Glucose, treated with sulforaphane): did not modify the response to dibutyryl cAMP
effect on energy production capacity ([1]; ASD Phenotype 1 cell lines, various carbon sources of energy (FIG. 1, FIG. 2: D-Glucose, maltose), exposed to sulforaphane): lack of effect
energy production capacity [2]: produced a decrease
metabolic profile (PCA of energy production capacity) ([2]; ASD non-Phenotype 1 cells exposed to sulforaphane, various carbon sources of energy): comparable to Ph1 cells at baseline
energy production capacity ([3]; control LCLs): produced a decrease
metabolic profile (PCA of energy production capacity) ([3]; control cells exposed to sulforaphane, various carbon sources of energy): comparable to Ph1 cells at baseline
core symptoms of ASD (as measured by the ADOS 2) [4]: significant improvements
behavioral response (ADI-r SI, ADI-r C or ADI-r RI) [5]: negative behavioral response
tolerability of administration to humans [6]: well tolerated
toxicity [6]: low toxicity

CCCC(=O)Nc1ncnc2c1ncn2[C@@H]1O[C@@H]2COP(=O)(O)O[C@H]2[C@H]1OC(=O)CCC [dibutyryl cAMP, dibutyril-cyclic adenosine monophosphate]
energy production capacity ([1]; Phenotype 1 cells, in the presence of D-Glucose, increasing concentrations): increased
energy production capacity after pretreatment with sulforaphane (Nrf2 activation) ([2]; ASD non-Ph1 LCLs, in presence of glucose): restituted
energy production capacity [2]: no effect
energy production capacity ([3]; control LCLs): no effect
energy production capacity after pretreatment with sulforaphane (Nrf2 activation) ([3]; control LCLs, in presence of glucose, addition of dibutyryl cAMP): restituted
